Measured values from ChEMBL document CHEMBL3885861, “Open TG-GATES”.

Organism: Rattus norvegicus
Assay: Open TG-GATES - Regimen: Daily Repeat
Assay type: toxicity, organism-based, Sprague-Dawley
Design: regimen Daily Repeat, gender Male, age 6 weeks
Details: in vivo, po, route diet; for Hb / Ht / MCH / MCHC / MCV / Plat / RBC / Ret / WBC: tissue Blood; for KIDNEY_L / KIDNEY_R / KIDNEY_TOTAL: tissue Kidney; for LIVER: tissue Liver; for A/G / ALP / ALT / AST / BUN / CRE / Ca / Cl / DBIL / GLC / IP / K / LDH / Na / PL / RALB / TBIL / TC / TG / TP / gamma-GTP: tissue Plasma
[1] = 72 h, dose 0 %, dose level Control, time 3 day
[2] = 72 h, dose 9999 %, dose level High, time 3 day
[3] = […], dose 0 %, dose level Control, time 7 day
[4] = […], dose 0 %, dose level Control, time 14 day
[5] = […], dose 0 %, dose level Control, time 28 day
[6] = […], dose 9999 %, dose level High, time 7 day
[7] = […], dose 9999 %, dose level High, time 14 day
[8] = […], dose 9999 %, dose level High, time 28 day

CC(C)CCC[C@@H](C)[C@H]1CC[C@H]2[C@@H]3CC=C4C[C@@H](O)CC[C@]4(C)[C@H]3CC[C@]12C.C[C@H](CCC(=O)[O-])[C@H]1CC[C@@H]2[C@]1(C)[C@@H](O)C[C@@H]1[C@@]3(C)CC[C@@H](O)C[C@H]3C[C@@H](O)[C@@]21C.[Na+] [cholesterol + sodium cholate]
TERMINAL_BW [1]: 232.1 g | TERMINAL_BW [2]: 241.9 g | Hb [1]: 12.9 g/dL | Ht [1]: 35.6% | MCH [1]: 23.1 pg | MCHC [1]: 36.2% | MCV [1]: 63.7 fL | Plat [1]: 121.7 x10_4/uL | RBC [1]: 558.2 x10_4/ul | Ret [1]: 6.9% | WBC [1]: 5.6 x10_2/uL | Hb [2]: 12.6 g/dL | Ht [2]: 35% | MCH [2]: 22.5 pg | MCHC [2]: 35.9% | MCV [2]: 62.6 fL | Plat [2]: 107.6 x10_4/uL | RBC [2]: 559.2 x10_4/ul | Ret [2]: 7% | WBC [2]: 5.8 x10_2/uL | KIDNEY_L [1]: 1 g | KIDNEY_R [1]: 1 g | KIDNEY_TOTAL [1]: 2 g | KIDNEY_R [2]: 1.1 g | KIDNEY_TOTAL [2]: 2.1 g | LIVER [1]: 10.6 g | LIVER [2]: 12.1 g | A/G [1]: 1 | ALP [1]: 1907.2 IU/L | ALT [1]: 41.8 IU/L | AST [1]: 69 IU/L | BUN [1]: 17.8 mg/dL | CRE [1]: 0.2 mg/dL | Ca [1]: 10.6 mg/dL | Cl [1]: 102.1 meq/L | DBIL [1]: 0 mg/dL | GLC [1]: 176 mg/dL | IP [1]: 7.2 mg/dL | K [1]: 4.3 meq/L | LDH [1]: 113.2 IU/L | Na [1]: 139.7 meq/L | PL [1]: 161.4 mg/dL | RALB [1]: 2.9 g/dL | TBIL [1]: 0 mg/dL | TC [1]: 75 mg/dL | TG [1]: 106.9 mg/dL | TP [1]: 5.7 g/dL | gamma-GTP [1]: 0.9 IU/L | ALP [2]: 2118 IU/L | ALT [2]: 42.4 IU/L | AST [2]: 72.2 IU/L | BUN [2]: 20.4 mg/dL | Ca [2]: 10.8 mg/dL | Cl [2]: 101.4 meq/L | GLC [2]: 182.8 mg/dL | IP [2]: 7.7 mg/dL | K [2]: 4.5 meq/L | LDH [2]: 149.4 IU/L | Na [2]: 139.4 meq/L | PL [2]: 157.4 mg/dL | TC [2]: 187.2 mg/dL | TG [2]: 136.6 mg/dL | TP [2]: 5.9 g/dL | gamma-GTP [2]: 0.8 IU/L | TERMINAL_BW [3]: 274.4 g | TERMINAL_BW [4]: 313.6 g | TERMINAL_BW [5]: 422.8 g | TERMINAL_BW [6]: 281.4 g | TERMINAL_BW [7]: 337.1 g | TERMINAL_BW [8]: 433.7 g | Hb [3]: 13.2 g/dL | Ht [3]: 36.5% | MCH [3]: 22.4 pg | MCHC [3]: 36.1% | MCV [3]: 62.2 fL | Plat [3]: 127.7 x10_4/uL | RBC [3]: 587.8 x10_4/ul | Ret [3]: 5.5% | WBC [3]: 8.6 x10_2/uL | Hb [4]: 12.6 g/dL | Ht [4]: 38.3% | MCH [4]: 19.3 pg | MCHC [4]: 32.8% | MCV [4]: 58.7 fL | Plat [4]: 111.1 x10_4/uL | RBC [4]: 654 x10_4/ul | Ret [4]: 4.2% | WBC [4]: 44.3 x10_2/uL | Hb [5]: 13.3 g/dL | Ht [5]: 39.2% | MCH [5]: 18.8 pg | MCHC [5]: 33.9% | MCV [5]: 55.4 fL | Plat [5]: 101.1 x10_4/uL | RBC [5]: 707.2 x10_4/ul | Ret [5]: 3% | WBC [5]: 55.7 x10_2/uL | Hb [6]: 12.5 g/dL | Ht [6]: 34.9% | MCH [6]: 21.6 pg | MCHC [6]: 35.7% | MCV [6]: 60.7 fL | Plat [6]: 142.4 x10_4/uL | RBC [6]: 574.8 x10_4/ul | Ret [6]: 5.6% | WBC [6]: 7.3 x10_2/uL | Hb [7]: 11.8 g/dL | Ht [7]: 36% | MCH [7]: 19.1 pg | MCHC [7]: 32.7% | MCV [7]: 58.3 fL | Plat [7]: 148.5 x10_4/uL | RBC [7]: 617.4 x10_4/ul | Ret [7]: 4.7% | WBC [7]: 30.6 x10_2/uL | Hb [8]: 13.1 g/dL | Ht [8]: 39% | MCHC [8]: 33.6% | MCV [8]: 55.9 fL | Plat [8]: 116.2 x10_4/uL | RBC [8]: 698.8 x10_4/ul | Ret [8]: 3.2% | WBC [8]: 50.2 x10_2/uL | KIDNEY_L [3]: 1.1 g | KIDNEY_R [3]: 1.1 g | KIDNEY_TOTAL [3]: 2.2 g | KIDNEY_L [4]: 1.2 g | KIDNEY_R [4]: 1.2 g | KIDNEY_TOTAL [4]: 2.3 g | KIDNEY_L [5]: 1.4 g | KIDNEY_R [5]: 1.4 g | KIDNEY_TOTAL [5]: 2.8 g | KIDNEY_L [6]: 1.2 g | KIDNEY_R [6]: 1.2 g | KIDNEY_TOTAL [6]: 2.4 g | KIDNEY_L [7]: 1.3 g | KIDNEY_R [7]: 1.4 g | KIDNEY_TOTAL [7]: 2.6 g | KIDNEY_L [8]: 1.6 g | KIDNEY_R [8]: 1.6 g | KIDNEY_TOTAL [8]: 3.2 g | LIVER [3]: 12.4 g | LIVER [4]: 13.6 g | LIVER [5]: 17.9 g | LIVER [6]: 16.3 g | LIVER [7]: 18.6 g | LIVER [8]: 24.7 g | A/G [3]: 1 | ALP [3]: 1589.8 IU/L | ALT [3]: 34 IU/L | AST [3]: 67.4 IU/L | BUN [3]: 19.6 mg/dL | CRE [3]: 0.2 mg/dL | Ca [3]: 10.4 mg/dL | Cl [3]: 105.2 meq/L | DBIL [3]: 0 mg/dL | GLC [3]: 193.4 mg/dL | IP [3]: 7.3 mg/dL | K [3]: 4.4 meq/L | LDH [3]: 160.6 IU/L | Na [3]: 141.5 meq/L | PL [3]: 154.8 mg/dL | RALB [3]: 2.8 g/dL | TBIL [3]: 0 mg/dL | TC [3]: 75.4 mg/dL | TG [3]: 124.4 mg/dL | TP [3]: 5.7 g/dL | gamma-GTP [3]: 0.9 IU/L | A/G [4]: 1 | ALP [4]: 1612.2 IU/L | ALT [4]: 38.4 IU/L | AST [4]: 79.8 IU/L | BUN [4]: 18.5 mg/dL | CRE [4]: 0.2 mg/dL | Ca [4]: 10.5 mg/dL | Cl [4]: 103.4 meq/L | DBIL [4]: 0.002 mg/dL | GLC [4]: 203.6 mg/dL | IP [4]: 6.5 mg/dL | K [4]: 3.7 meq/L | LDH [4]: 284.8 IU/L | Na [4]: 141.8 meq/L | PL [4]: 139.4 mg/dL | RALB [4]: 2.9 g/dL | TBIL [4]: 0 mg/dL | TC [4]: 62.4 mg/dL | TG [4]: 145.6 mg/dL | TP [4]: 5.8 g/dL | gamma-GTP [4]: 1 IU/L | A/G [5]: 0.8 | ALP [5]: 1365 IU/L | ALT [5]: 31.4 IU/L | AST [5]: 56.2 IU/L | BUN [5]: 17.7 mg/dL | CRE [5]: 0.2 mg/dL | Ca [5]: 10.3 mg/dL | Cl [5]: 103.3 meq/L | DBIL [5]: 0.006 mg/dL | GLC [5]: 210.8 mg/dL | IP [5]: 6.4 mg/dL | K [5]: 4.2 meq/L | LDH [5]: 103.6 IU/L | Na [5]: 139 meq/L | PL [5]: 143.8 mg/dL | RALB [5]: 2.8 g/dL | TBIL [5]: 0 mg/dL | TC [5]: 68.2 mg/dL | TG [5]: 180.9 mg/dL | TP [5]: 6 g/dL | gamma-GTP [5]: 0.9 IU/L | A/G [6]: 0.9 | ALP [6]: 1845.8 IU/L | ALT [6]: 43.4 IU/L | AST [6]: 79.8 IU/L | BUN [6]: 18.6 mg/dL | Ca [6]: 10.7 mg/dL | Cl [6]: 103.2 meq/L | GLC [6]: 190 mg/dL | IP [6]: 7.6 mg/dL | K [6]: 4.5 meq/L | LDH [6]: 179.4 IU/L | Na [6]: 140.8 meq/L | PL [6]: 174 mg/dL | RALB [6]: 3 g/dL | TC [6]: 181 mg/dL | TG [6]: 141.6 mg/dL | TP [6]: 6.2 g/dL | gamma-GTP [6]: 1.1 IU/L | A/G [7]: 0.8 | ALP [7]: 1718.2 IU/L | ALT [7]: 35.4 IU/L | AST [7]: 68 IU/L | BUN [7]: 18.4 mg/dL | Ca [7]: 10.8 mg/dL | Cl [7]: 101.7 meq/L | DBIL [7]: 0 mg/dL | GLC [7]: 200.2 mg/dL | IP [7]: 6.7 mg/dL | K [7]: 4.2 meq/L | LDH [7]: 181.2 IU/L | Na [7]: 141.2 meq/L | PL [7]: 142.8 mg/dL | TC [7]: 158.2 mg/dL | TG [7]: 121.9 mg/dL | TP [7]: 6.5 g/dL | gamma-GTP [7]: 1.1 IU/L | ALP [8]: 1155 IU/L | ALT [8]: 34.6 IU/L | AST [8]: 62.8 IU/L | BUN [8]: 16.6 mg/dL | Ca [8]: 10.7 mg/dL | Cl [8]: 100.9 meq/L | DBIL [8]: 0 mg/dL | GLC [8]: 194 mg/dL | IP [8]: 6.5 mg/dL | K [8]: 3.9 meq/L | LDH [8]: 135 IU/L | Na [8]: 140.2 meq/L | PL [8]: 146.2 mg/dL | RALB [8]: 3 g/dL | TC [8]: 147.6 mg/dL | TG [8]: 120.2 mg/dL | TP [8]: 6.8 g/dL
